Patent US8895610B1, “Platinum (IV) compounds targeting zinc finger domains” (priority 2007, dated 2014)
“And” between values parts separate entries of the source, which are not always exact repeats. Equal entries are not always repeated.

Key:
STAT3 = STAT3 (Homo sapiens, UniProt P40763); conditions: have been shown; cited from earlier work
FIV Petaluma = experiment: p25 antigen evaluation of antiviral activity in MBM cells; format: cell-based, feline; conditions: for p25 Viral Antigen (OD), average / p25 Viral Antigen (OD), individual wells: 7 days post infection, K+ = 1.195, K− = 0.08
Description: Antiviral activity in MBM was determined by inoculating 200 Tissue Culture Infectious Doses 50% FIV Petaluma (Talbott, 1989) in 100 μL RPMI 1640 medium into quadruplicate wells of 96-well microplates containing 2×10^5 cells in 100 μL medium. The cultures were monitored by measuring FIV p25 capsid protein (Lombardi, 1994) release in the supernatants after 7 days of incubation at 37° C. in 5% CO2 (Table 12). Half the media (without drug) was replaced on days 2 and 6 after infection and initial drug exposure. […] Drugs are identified as: CPA-7 (#1); NAD (#2); cisplatin (#3) and FX101 (#4). […]. […] A minimum of 50% inhibition in vitro is required to offset viral infectivity and replication in vivo.

Chain of STAT3 (P40763 whole entry, species assumed): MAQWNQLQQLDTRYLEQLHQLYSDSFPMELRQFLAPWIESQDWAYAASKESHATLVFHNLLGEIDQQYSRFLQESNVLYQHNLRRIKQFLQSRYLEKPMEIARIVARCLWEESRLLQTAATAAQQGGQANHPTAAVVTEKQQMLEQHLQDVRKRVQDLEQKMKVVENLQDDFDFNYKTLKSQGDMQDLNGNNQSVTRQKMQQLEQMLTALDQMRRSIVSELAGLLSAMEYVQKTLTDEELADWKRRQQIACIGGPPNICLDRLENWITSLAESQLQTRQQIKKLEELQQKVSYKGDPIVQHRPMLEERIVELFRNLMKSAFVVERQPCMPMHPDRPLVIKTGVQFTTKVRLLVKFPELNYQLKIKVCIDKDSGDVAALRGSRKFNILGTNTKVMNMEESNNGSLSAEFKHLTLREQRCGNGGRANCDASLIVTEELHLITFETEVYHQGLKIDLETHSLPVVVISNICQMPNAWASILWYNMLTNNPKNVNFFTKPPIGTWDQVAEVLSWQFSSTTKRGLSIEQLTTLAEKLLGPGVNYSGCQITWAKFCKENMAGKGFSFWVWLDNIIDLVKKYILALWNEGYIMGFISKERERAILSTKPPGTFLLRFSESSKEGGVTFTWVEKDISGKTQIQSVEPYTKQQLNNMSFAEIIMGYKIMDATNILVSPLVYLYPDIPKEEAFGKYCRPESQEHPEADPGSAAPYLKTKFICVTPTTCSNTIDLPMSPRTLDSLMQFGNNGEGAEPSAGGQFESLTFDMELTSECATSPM

Compound	inhibition of STAT3 (STAT3)	inhibition (elimination of all measures of virus) by day 7 (FIV Petaluma; 7 days, concentrations used 5 and 20 μM) [%]	p25 Viral Antigen (OD), average (FIV Petaluma; conc 5 μM) [OD]	p25 Viral Antigen (OD), individual wells (FIV Petaluma; conc 5 μM)	p25 Viral Antigen (OD), average (FIV Petaluma; conc 20 μM) [OD]	p25 Viral Antigen (OD), individual wells (FIV Petaluma; conc 20 μM)	antiviral effectiveness (in words) (FIV Petaluma; p25 release, MBM cells, 7 days)
[NH2][Pt]([NH2])([Cl])([Cl])([Cl])[N+](=O)[O-] [Drug #1]	inhibit STAT3	< 30	1.0943	1.093 OD and 1.122 OD and 1.068 OD	0.8163	0.788 OD and 0.825 OD and 0.836 OD	insignificantly effective
N.N.[Cl][Pt][Cl] [Drug #3, cisplatin]			1.0157	1.04 OD and 1.021 OD and 0.986 OD	1.0133	1.014 OD and 1.033 OD and 0.993 OD	
